From patent publication US8153795B2, “Substituted 1-oxa-3,8-diazaspiro[4.5]-decan-2-one-compounds and the use thereof for producing drugs” (Gruenenthal GmbH, priority 2005, dated 2012)

Biological target: T1, 5-HT transporter (Rattus norvegicus, UniProt P31652)
T1 construct: from tissue; host or cells: rat brain synaptosomes (P2 fraction) from medulla and pons
Assay: 5-HT uptake inhibition in rat brain synaptosomes (medulla and pons), [3H]-5-HT
Type: biochemical
Description: a) Method for Determining Noradrenalin and 5-HT Uptake Inhibition:
Synaptosomes from rat brain regions are freshly isolated for in vitro studies, as described in the publication “The isolation of nerve endings from brain” by E. G. Gray and V. P. Whittaker, J. Anatomy 96, pages 79-88, 1962. The corresponding literature description is hereby introduced as a reference and is deemed to be part of the disclosure.
The tissue (hypothalamus for the determination of noradrenalin uptake inhibition and medulla and pons for the determination of 5-HT uptake inhibition) is homogenised in ice-cooled 0.32 M sucrose (100 mg of tissue/1 mL) in a glass homogeniser with Teflon pestle using five complete up and down strokes at 840 revolutions/minute.
The homogenate is centrifuged at 4° C. for 10 minutes at 1000 g. After subsequent centrifugation at 17000 g for 55 minutes, the synaptosomes (P2 fraction) are obtained, which are resuspended in 0.32 M […] (0.5 mL/100 mg of original weight).
The particular uptake is measured in a 96-well microtitre plate. The volume is 250 μl and the incubation proceeds at room temperature (approx. 20-25° C.) under an O2 atmosphere.
The incubation time is 7.5 minutes for [^3H]-NA and 5 minutes for [^3H]-5-HT. The 96 samples are then filtered through a Unifilter GF/B® microtitre plate (Packard) and washed with 200 mL of incubated buffer using a “Brabdel MPXRI-96T Cell-Harvester”. The Unifilter GF/B plate is dried for 1 hour at 55° C. The plate is then sealed with a Back Seal® (Packard) and 35 μl of scintillation fluid are added per well (Ultima Gold®, Packard). After sealing with a top Seal® (Packard) and establishing an equilibrium (around 5 hours), radioactivity is determined in a “Trilux 1450 Microbeta” (Wallac).
The quantity of protein used in the above determination corresponds to the values known from the literature, as for example described in “Protein measurement with the folin phenol reagent”, Lowry et al., J. Biol. Chem., 193, 265-275, 1951.
A detailed description of the method may additionally be found in the literature, for example in M. Ch. Frink, H.-H. Hennies, W. Engelberger, M. Haurand and B. Wilffert (1996) Arzneim.-Forsch./Drug Res. 46 (III), 11, 1029-1036.

T1 sequence (P31652 whole entry): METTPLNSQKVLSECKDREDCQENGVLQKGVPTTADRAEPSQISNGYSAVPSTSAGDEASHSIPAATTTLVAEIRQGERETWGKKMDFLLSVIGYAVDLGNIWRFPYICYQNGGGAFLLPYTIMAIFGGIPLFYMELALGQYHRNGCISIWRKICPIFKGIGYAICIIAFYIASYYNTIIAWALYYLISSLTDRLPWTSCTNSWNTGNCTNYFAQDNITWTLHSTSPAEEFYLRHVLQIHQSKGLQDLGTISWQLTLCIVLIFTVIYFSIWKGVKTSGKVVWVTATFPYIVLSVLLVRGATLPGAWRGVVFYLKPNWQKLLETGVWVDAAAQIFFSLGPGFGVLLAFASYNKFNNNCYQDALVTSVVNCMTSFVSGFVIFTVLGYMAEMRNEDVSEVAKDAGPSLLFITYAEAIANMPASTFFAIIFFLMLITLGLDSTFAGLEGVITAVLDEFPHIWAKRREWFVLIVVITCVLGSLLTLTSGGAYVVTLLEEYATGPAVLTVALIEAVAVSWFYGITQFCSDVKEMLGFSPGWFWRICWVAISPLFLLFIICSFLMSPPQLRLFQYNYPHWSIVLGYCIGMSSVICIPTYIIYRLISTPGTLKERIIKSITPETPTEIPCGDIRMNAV

| Structure (SMILES) | inhibition at 10 µM |
| --- | --- |
| Cc1ccc(CN2CC3(CCN(C(=S)Nc4c(F)c(F)c(F)c(F)c4F)CC3)OC2=O)cc1 [Example 1, 3-(4-methylbenzyl)-2-oxo-1-oxa-3,8-diazaspiro[4.5]decane-8-carbothioic acid pentafluorophenylamide] | 66% |
| O=C1OC2(CCN(C(=S)NCc3ccccc3)CC2)CN1Cc1ccc(C(F)(F)F)cc1 [Example 3, 2-oxo-3-(4-trifluoromethylbenzyl)-1-oxa-3,8-diazaspiro[4.5]decane-8-carbothioic acid benzylamide] | 69% |
| Cc1cc(C)cc(CN2CC3(CCN(C(=S)NCC4CCCO4)CC3)OC2=O)c1 (centres unmarked) [Example 4, 3-(3,5-dimethylbenzyl)-2-oxo-1-oxa-3,8-diazaspiro[4.5]decane-8-carbothioic acid (tetrahydrofuran-2-ylmethyl)amide] | 76% |
| O=C1OC2(CCN(C(=S)NCc3ccccc3)CC2)CN1Cc1ccc(F)c(F)c1 [Example 11, 3-(3,4-difluorobenzyl)-2-oxo-1-oxa-3,8-diazaspiro[4.5]decane-8-carbothioic acid benzylamide] | 58% |
| CC(NC(=S)N1CCC2(CC1)CN(Cc1ccccc1-c1ccccc1)C(=O)O2)c1ccccc1 (centres unmarked) [Example 12, 3-biphenyl-2-ylmethyl-2-oxo-1-oxa-3,8-diazaspiro[4.5]decane-8-carbothioic acid (1-phenylethyl)amide] | 60% |
| O=C1OC2(CCN(C(=S)NCc3ccccc3)CC2)CN1Cc1cccc(Br)c1 [Example 16, 3-(3-bromobenzyl)-2-oxo-1-oxa-3,8-diazaspiro[4.5]decane-8-carbothioic acid benzylamide] | 54% |
| COc1ccc([N+](=O)[O-])cc1CN1CC2(CCN(C(=S)NCC3CCCCC3)CC2)OC1=O [Example 21, 3-(2-methoxy-5-nitrobenzyl)-2-oxo-1-oxa-3,8-diazaspiro[4.5]decane-8-carbothioic acid cyclohexylmethylamide] | 55% |
| N#Cc1cccc(CN2CC3(CCN(C(=S)NCc4ccc(Cl)cc4)CC3)OC2=O)c1 [Example 22, 3-(3-cyanobenzyl)-2-oxo-1-oxa-3,8-diazaspiro[4.5]decane-8-carbothioic acid 4-chlorobenzylamide] | 48% |
| COc1ccc([N+](=O)[O-])cc1CN1CC2(CCN(C(=S)NCc3ccccc3)CC2)OC1=O [Example 23, 3-(2-methoxy-5-nitrobenzyl)-2-oxo-1-oxa-3,8-diazaspiro[4.5]decane-8-carbothioic acid benzylamide] | 60% |
| O=C(Nc1cc(Cl)ccc1Cl)N1CCC2(CC1)CN(Cc1ccccc1-c1ccccc1)C(=O)O2 [Example 25, 3-biphenyl-2-ylmethyl-2-oxo-1-oxa-3,8-diazaspiro[4.5]decane-8-carboxylic acid (2,5-dichlorophenyl)amide] | 53% |
| COc1ccc([N+](=O)[O-])cc1CN1CC2(CCN(C(=O)Nc3cc(F)ccc3F)CC2)OC1=O [Example 26, 3-(2-methoxy-5-nitrobenzyl)-2-oxo-1-oxa-3,8-diazaspiro[4.5]decane-8-carboxylic acid (2,5-difluorophenyl)amide] | 70% |
| CCOC(=O)c1ccc(NC(=O)N2CCC3(CC2)CN(Cc2ccc4ccccc4c2)C(=O)O3)cc1 [Example 30, 4-[(3-naphthalen-2-ylmethyl-2-oxo-1-oxa-3,8-diazaspiro[4.5]decane-8-carbonyl)amino]benzoic acid ethyl ester] | 65% |
| N#Cc1ccccc1CN1CC2(CCN(C(=O)Nc3cc(F)ccc3F)CC2)OC1=O [Example 32, 3-(2-cyanobenzyl)-2-oxo-1-oxa-3,8-diazaspiro[4.5]decane-8-carboxylic acid (2,5-difluorophenyl)amide] | 56% |
| N#Cc1cccc(NC(=O)N2CCC3(CC2)CN(Cc2ccc(SC(F)(F)F)cc2)C(=O)O3)c1 [Example 38, 2-oxo-3-(4-trifluoromethylsulfanylbenzyl)-1-oxa-3,8-diazaspiro[4.5]decane-8-carboxylic acid (3-cyanophenyl)amide] | 52% |
| Cc1ccc(NC(=O)N2CCC3(CC2)CN(Cc2ccc(SC(F)(F)F)cc2)C(=O)O3)cc1[N+](=O)[O-] [Example 40, 2-oxo-3-(4-trifluoromethylsulfanylbenzyl)-1-oxa-3,8-diazaspiro[4.5]decane-8-carboxylic acid (4-methyl-3-nitrophenyl)amide] | 54% |
| CCCCOc1ccc(NC(=O)N2CCC3(CC2)CN(Cc2ccc(I)cc2)C(=O)O3)cc1 [Example 41, 3-(4-iodobenzyl)-2-oxo-1-oxa-3,8-diazaspiro[4.5]decane-8-carboxylic acid (4-butoxyphenyl)amide] | 49% |
| CC(NC(=O)N1CCC2(CC1)CN(Cc1ccccc1)C(=O)O2)c1ccccc1 (centres unmarked) [Example 43, 3-benzyl-2-oxo-1-oxa-3,8-diazaspiro[4.5]decane-8-carboxylic acid (1-phenylethyl)amide] | 49% |
| Cc1ccc(CN2CC3(CCN(C(=O)NCCc4ccccc4)CC3)OC2=O)cc1 [Example 45, 3-(4-methylbenzyl)-2-oxo-1-oxa-3,8-diazaspiro[4.5]decane-8-carboxylic acid phenethylamide] | 51% |
| COc1cccc(NC(=O)N2CCC3(CC2)CN(Cc2ccccc2C(F)(F)F)C(=O)O3)c1 [Example 46, 2-oxo-3-(2-trifluoromethylbenzyl)-1-oxa-3,8-diazaspiro[4.5]decane-8-carboxylic acid (3-methoxyphenyl)amide] | 43% |
| COc1ccc(NC(=O)N2CCC3(CC2)CN(Cc2ccc(C#N)cc2)C(=O)O3)cc1 [Example 47, 3-(4-cyanobenzyl)-2-oxo-1-oxa-3,8-diazaspiro[4.5]decane-8-carboxylic acid (4-methoxyphenyl)amide] | 49% |
| CC(NC(=O)N1CCC2(CC1)CN(Cc1ccc(C(F)(F)F)cc1)C(=O)O2)c1cccc2ccccc12 (centres unmarked) [Example 48, 2-oxo-3-(4-trifluoromethylbenzyl)-1-oxa-3,8-diazaspiro[4.5]decane-8-carboxylic acid (1-naphthalen-1-yl-ethyl)amide] | 43% |
| Cc1ccc(NC(=O)N2CCC3(CC2)CN(Cc2ccc(I)cc2)C(=O)O3)cc1[N+](=O)[O-] [Example 50, 3-(4-iodobenzyl)-2-oxo-1-oxa-3,8-diazaspiro[4.5]decane-8-carboxylic acid (4-methyl-3-nitrophenyl)amide] | 64% |
| COc1ccc([N+](=O)[O-])cc1CN1CC2(CCN(C(=O)Nc3cccc(C#N)c3)CC2)OC1=O [Example 51, 3-(2-methoxy-5-nitrobenzyl)-2-oxo-1-oxa-3,8-diazaspiro[4.5]decane-8-carboxylic acid (3-cyanophenyl)amide] | 89% |
| CC(NC(=O)N1CCC2(CC1)CN(Cc1ccccc1C(F)(F)F)C(=O)O2)c1cccc2ccccc12 (centres unmarked) [Example 54, 2-oxo-3-(2-trifluoromethylbenzyl)-1-oxa-3,8-diazaspiro[4.5]decane-8-carboxylic acid (1-naphthalen-1-yl-ethyl)amide] | 75% |
| COc1ccc(OC)c(NC(=O)N2CCC3(CC2)CN(Cc2ccc4ccccc4c2)C(=O)O3)c1 [Example 55, 3-naphthalen-2-ylmethyl-2-oxo-1-oxa-3,8-diazaspiro[4.5]decane-8-carboxylic acid (2,5-dimethoxyphenyl)amide] | 61% |
| CC(=O)c1cccc(NC(=O)N2CCC3(CC2)CN(Cc2ccc(C#N)cc2)C(=O)O3)c1 [Example 56, 3-(4-cyanobenzyl)-2-oxo-1-oxa-3,8-diazaspiro[4.5]decane-8-carboxylic acid (3-acetylphenyl)amide] | 60% |
| COc1ccc(Cl)cc1NC(=O)N1CCC2(CC1)CN(Cc1ccc(C#N)cc1)C(=O)O2 [Example 58, 3-(4-cyanobenzyl)-2-oxo-1-oxa-3,8-diazaspiro[4.5]decane-8-carboxylic acid (5-chloro-2-methoxyphenyl)amide] | 49% |
| CCOC(=O)c1cccc(NC(=O)N2CCC3(CC2)CN(Cc2ccccc2C(F)(F)F)C(=O)O3)c1 [Example 59, 3-{[2-oxo-3-(2-trifluoromethylbenzyl)-1-oxa-3,8-diazaspiro[4.5]decane-8-carbonyl]amino}benzoic acid ethyl ester] | 47% |
| CC(C)(C)OC(=O)NC(Cc1c[nH]c2ccccc12)C(=O)N1CCC2(CC1)CN(Cc1cccc(Br)c1)C(=O)O2 (centres unmarked) [Example 66, [2-[3-(3-bromobenzyl)-2-oxo-1-oxa-3,8-diazaspiro[4.5]dec-8-yl]-1-(1H-indol-3-ylmethyl)-2-oxoethyl]carbamic acid tert-butyl ester] | 53% |
